A short description of one series: in vivo. Particulars: cat, in vivo. Here is the method:
(§1) The pharmacological action of the new compounds according to the present invention was determined by the comparison of 12-dehydrodigoxin oxime (Compound 1 from) and 12-dehydrodigoxin-o-methyloxime (Compound 7 from) with digoxin, which is a known pharmaceutical for the treatment of cardiac insufficiency, using the following experimental procedure:
(§2) The positive inotropic and cardiotoxic action was tested on cats with pentobarbital-induced heart insufficiency. Increasing dosages were injected at intervals of 10 minutes, so that the total dosage increased in each case by the factor √2. The criterion for the therapeutically relevant, positively inotropic action was the increase of the maximum pressure increase rate by 1.5 or 3.0 mm. Hg/sec (DE1.5 and DE3.0). The quotient from both values is a measure for the steepness of the dosage activity line.
(§3) The measure for the cardiotoxicity was the dosage at which the first disturbances of the induction of stimulation took place. The point of time of the commencement of arrhythmias as ascertained from the electrocardiogram and the related dosage calculated by interpolation. The quotient from this cardiotoxic dosage and the DE1.5 served as a measure for the therapeutic breadth.

The test system of series [1] is cats with pentobarbital-induced heart insufficiency. The experiment in a line: animal or person. Particulars: for ED (1.5 mmHg/sec increase) / ED (3.0 mmHg/sec increase): Felis catus, 10 min; for ED (1.5 mmHg/sec increase): read-out: DE1.5; for ED (3.0 mmHg/sec increase): read-out: DE3.0; for quotient of DE3.0 and DE1.5, steepness of the dosage activity line: cats, fractionated injection. The procedure: as §1, §2, §3

The nature of series [2]: Pharmacokinetic investigations on awake cats, intravenous injection of 3H-marked test compounds. The series is classed as in vivo, cat. The settings on record: for distribution volume / elimination constant / excretion in urine: awake cats, i.v., digoxin 30 μg./kg., Cpd. 1 and Cpd. 7 100 μg./kg.; for excretion in urine: urine collected for 14 days; for dosage needed to achieve the same plasma concentration, relative to digoxin: from total clearance. The procedure: Pharmacokinetic investigations were carried out on awake cats, the test compounds being injected intravenously in the ^3 H-marked form. Over the course of 48 hours, blood samples were taken via an implanted catheter for the determination of the radioactivity in the plasma. The urine was collected for 14 days. The elimination constant was calculated from the decrease of the plasma concentration and the amount excreted in the urine.

The conditions of series [3]: humans; cited from earlier work.

Read-outs that look alike come from different tables or passages of the source.

`C[C@H]1O[C@@H](O[C@H]2[C@@H](O)C[C@H](O[C@H]3[C@@H](O)C[C@H](O[C@H]4CC[C@@]5(C)[C@H](CC[C@@H]6[C@@H]5CC(=NO)[C@]5(C)[C@@H](C7=CC(=O)OC7)CC[C@]65O)C4)O[C@@H]3C)O[C@@H]2C)C[C@H](O)[C@@H]1O` [Compound 1, 12-Dehydrodigoxin oxime]: in the series “in vivo”, the TD50 was 0.51 mg/kg and the selectivity ratio turned out to be 4.85. Moreover, in series [1], the ED (1.5 mmHg/sec increase) came to 0.105 mg/kg; the ED (3.0 mmHg/sec increase) was 0.236 mg/kg; the “quotient of DE3.0 and DE1.5, steepness of the dosage activity line” value (shortened to “quotient”) came out at 1.98. In addition, in series [2], the distribution volume amounted to 2.74 kg⁻¹, the elimination constant turned out to be 0.0258 h⁻¹ and the excretion in urine was 30 % of dose. The “dosage needed to achieve the same plasma concentration, relative to digoxin” value in series [2] (cats) is on record as “about 45 % of the dosage of digoxin”. Besides, in series [2] (in words, cats), the “elimination constant compared with digoxin” value is listed as “even greater”.
In the case of `CON=C1C[C@H]2[C@@H](CC[C@@H]3C[C@@H](O[C@H]4C[C@H](O)[C@H](O[C@H]5C[C@H](O)[C@H](O[C@H]6C[C@H](O)[C@H](O)[C@@H](C)O6)[C@@H](C)O5)[C@@H](C)O4)CC[C@@]32C)[C@@]2(O)CC[C@H](C3=CC(=O)OC3)[C@@]12C` [Compound 7, 12-Dehydrodigoxin--O-methyloxime], in the series “in vivo”, the TD50 was 1.37 mg/kg and the selectivity ratio came to 4.1. Moreover, in series [1], the ED (1.5 mmHg/sec increase) turned out to be 0.334 mg/kg; the ED (3.0 mmHg/sec increase) is 0.817 mg/kg; the “quotient” value turned out to be 3.56. For the same compound, the “dosage activity line compared with digoxin” value in series [1] (in words) is “flatter than in the case of digoxin”. In series [2], the distribution volume was found to be 1.47 kg⁻¹, the elimination constant was found to be 0.0143 h⁻¹ and the excretion in urine is 31 % of dose. In series [2] (cats), the “dosage needed to achieve the same plasma concentration, relative to digoxin” value is 13 % of the dosage of digoxin. In series [2] (in words, cats), the “distribution volume compared with digoxin” value was “lower distribution volume”, the “elimination constant compared with digoxin” value is listed as “about equally as great as for digoxin” and the “total clearance compared with digoxin” value is listed as “lower total clearance”.
`C[C@H]1O[C@@H](O[C@H]2[C@@H](O)C[C@H](O[C@H]3[C@@H](O)C[C@H](O[C@H]4CC[C@@]5(C)[C@H](CC[C@@H]6[C@@H]5C[C@@H](O)[C@]5(C)[C@@H](C7=CC(=O)OC7)CC[C@]65O)C4)O[C@@H]3C)O[C@@H]2C)C[C@H](O)[C@@H]1O` [digoxin]: in “in vivo”, the TD50 is 0.33 mg/kg and the selectivity ratio is 2.75. In addition, in series [1], the ED (1.5 mmHg/sec increase) was found to be 0.12 mg/kg; the ED (3.0 mmHg/sec increase) turned out to be 0.253 mg/kg; the “quotient” value was 2.28. In series [2], the distribution volume came out at 13.3 kg⁻¹, the elimination constant was 0.01214 h⁻¹ and the excretion in urine was 42.8 % of dose. Further, the elimination constant result in series [3] is “about 0.015 h^-1”.

Values taken from patent publication US4292314A, “Cardioactive 12-dehydrodigoxin-oximes” (Boehringer Mannheim GmbH, priority 1979, dated 1981).
